The values that follow come from patent publication US6509367B1 (priority 2001, dated 2003).

Where two headings read alike, the source gives them in different places.

Assay [1] relates to mice. Nature of the assay: Rectal temperature (hypothermia) in mice, compound alone (agonism test). As to conditions: for ED50: Mus musculus, iv. Type of assay: in vivo. The procedure:
(§1) Male ICR mice (25-32 g), purchased from Harlan (Dublin, Va.), were housed in groups of five. All animals were kept in a temperature-controlled (20-22° C.) environment with a 12-hour light-dark cycle (lights on at 7 a.m.). Separate mice were used for testing each drug dose in the in vivo behavioral procedures. The mice were maintained on a […] light: dark cycle, and received food and water ad libitum. Brain tissue for binding studies was obtained from male Sprague-Dawley rats (150-200 g) purchased from Harlan Laboratories (Dublin, Va.).
(§2) Measurement of spontaneous activity in mice occurred in standard activity chambers interfaced with a Digiscan Animal Activity Monitor (Omnitech Electronics, Inc., Columbus, Ohio). A standard tail-flick apparatus (described by Dewey et al., 1970) and a digital thermometer (Fisher Scientific, Pittsburgh, Pa.) were used to measure antinociception and rectal temperature, respectively.
(§3) All drugs were administered to the mice intravenously (i.v.) in the tail vein at a volume of 0.1 ml/10 g.
(§4) Maximum latency of 10 sec was used.

Another assay addresses CB1 receptor (Rattus norvegicus, UniProt P20272). The assay can be described thus: biochemical. Type of assay: binding. As to conditions: for Ki: 1 nM [3H] CP 55,940, rat whole brain P2 membranes, 30° C. for 1 hr. The procedure:
as §1
All assays, as described briefly below, were performed in triplicate, and the results represent the combined data from three to six individual experiments. Following decapitation and rapid removal of the brain, whole brain was homogenized and centrifuged. The resulting pellet was termed P1. The supernatant was saved and combined with the two subsequent supernatants obtained from washing of the P1 pellet. The combined supernatant fractions were centrifuged, resulting in the P2 pellet. After further incubation and centrifuging, this pellet was resuspended in assay buffer to a protein concentration of approximately 2 mg/ml. The membrane preparation was quickly frozen in a bath solution of dry ice and 2-methylbutane (Sigma Chemical Co., St. Louis, Mo.), then stored at −80° C. for no more than 2 weeks. […] Binding was initiated by the addition of 150 μg of P2 membrane to test tubes containing 1 nM of [3H] […] Following incubation at 30° C. for 1 hr, binding was terminated by addition of ice-cold buffer and vacuum filtration through pretreated filters in a 12-well sampling manifold (Millipore, Bedford, Mass.). After washing, filters were placed into plastic scintillation vials (Packard, Downer Grove, Ill.) and shaken. The quantity of radioactivity present was determined by liquid scintillation spectrometry.

In assay [2] the test system is mice. The assay can be described thus: Tail-flick antinociception in mice, compound in combination with 3 mg/kg Δ^9-THC (antagonism test). The format is in vivo. The procedure:
as §1, §2, §3, §4

In assay [3] the test system is mice. The assay can be described thus: Rectal temperature in mice, compound in combination with 3 mg/kg Δ^9-THC (antagonism test). Type of assay: in vivo. The procedure: as §1, §2, §3, §4
The test system of assay [4] is mice. The assay can be described thus: Spontaneous activity in mice, compound in combination with 3 mg/kg Δ^9-THC (antagonism test). Type of assay: in vivo. As to conditions: for SA: maximum % antagonism of 3 mg/kg Δ^9-THC: analog 10 min before Δ^9-THC. How it is done:
as §1, §2, §3, §4

Assay [5] concerns mice. The assay can be described thus: Spontaneous (locomotor) activity in mice, compound alone (agonism test). Type of assay: in vivo. The procedure: as §1, §2, §3, §4
In assay [6] the test system is mice. Nature of the assay: Tail-flick antinociception in mice, compound alone (agonism test). To be noted: for ED50: Mus musculus, iv. The format is in vivo. The procedure:
as §1, §2, §3, §4

Where [7] appears, read: read-out: RT: > dose, 50% activity not achieved at this highest dose tested.
[8] abbreviates: at the dose(s) [mg/kg] given in parentheses in the cell.
Setting [9] is: Mus musculus, iv, mice, i.v., read-out: SA: > dose, 50% activity not achieved at this highest dose tested.
The mark [10] stands for this setting: read-out: TF: > dose, 50% activity not achieved at this highest dose tested.

CB1 receptor, sequence (P20272 whole entry): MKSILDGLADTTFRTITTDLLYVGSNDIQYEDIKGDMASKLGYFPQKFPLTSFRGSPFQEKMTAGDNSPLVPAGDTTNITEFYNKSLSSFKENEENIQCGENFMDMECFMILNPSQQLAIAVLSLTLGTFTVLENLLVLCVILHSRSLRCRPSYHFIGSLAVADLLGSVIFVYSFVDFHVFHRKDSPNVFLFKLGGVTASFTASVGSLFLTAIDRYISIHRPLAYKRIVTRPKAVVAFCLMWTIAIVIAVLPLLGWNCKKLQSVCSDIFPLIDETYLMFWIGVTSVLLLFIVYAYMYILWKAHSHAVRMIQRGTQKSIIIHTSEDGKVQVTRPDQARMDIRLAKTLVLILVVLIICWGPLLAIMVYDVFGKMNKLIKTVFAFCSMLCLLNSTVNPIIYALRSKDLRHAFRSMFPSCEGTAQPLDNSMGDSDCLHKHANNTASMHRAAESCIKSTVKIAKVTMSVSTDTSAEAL

A word on the Ki: it is a dissociation constant, usually derived from enzyme kinetics or from competition with a known ligand. Consider `CCCCc1ccc(-n2nc(C(=O)NN3CCCCC3)c(C)c2-c2ccc(Cl)cc2)cc1` [Compound O-1254], for which the ED50 in the assay on mice [1] (setting [7]), in the assay on mice [5] (setting [9]) and in the assay on mice [6] (setting [10]) was > 30 mg/kg throughout. The Ki at CB1 receptor (Ki (nM)) is 226 ± 4 nM. For the same compound, in the assay with mice [2] (at 30 mg/kg i.v.), the “% MPE: maximum % antagonism of 3 mg/kg Δ^9-THC” value is reported as 52% (30). Besides, in the assay with mice [3] (at 10 mg/kg i.v.), the “RT: maximum % antagonism of 3 mg/kg Δ^9-THC” value is 31% (10). In addition, the “Max stim of spontaneous locomotor activity, Compound with 3 mg/kg Δ^9-THC” value in the assay with mice [4] (at 30 mg/kg i.v.) was 13% (30). In addition, the “SA: maximum % antagonism of 3 mg/kg Δ^9-THC (in words)” value in the assay on mice [4] (setting [8]) was “stimulation”. For the same compound, the “Max % inhibit of spontaneous locomotor activity, Compound with 3 mg/kg Δ^9-THC (in words)” value with mice [4] (doses in mg/kg) is recorded as “stim at 10”. Moreover, in the assay on mice [5] (Mus musculus, iv, at 30 mg/kg i.v., read-out: Max stim of spontaneous locomotor activity, Compound Alone), the change in vivo at 30 mg/kg turned out to be 29%. Further, the “Max % inhibit of spontaneous locomotor activity, Compound Alone (in words: stimulation instead of inhibition)” value with mice [5] (doses in mg/kg) was “stim at 3, 10 & 30”.
As for `CCCCCc1ccc(-c2c(C)c(C(=O)NN3CCCCC3)nn2-c2ccc(Cl)cc2Cl)cc1` [Compound O-1302, N-(Piperidin-1-yl)-1-(2,4-dichlorophenyl)-4-methyl-5-(4-pentylphenyl)-1H-pyrazole-3-carboxamide], the ED50 with mice [1] (setting [7]), in the assay on mice [5] (setting [9]) and with mice [6] (setting [10]) was > 30 mg/kg throughout. Moreover, affinity on CB1 receptor (Ki (nM)) was put at a Ki of 2.1 ± 0.08 nM. On CB1 receptor (compared to SR 141716A), the “CB1 receptor binding affinity, fold greater than SR 141716A” value was “approximately 3 fold”. Besides, the “Max % inhibit of spontaneous locomotor activity, Compound with 3 mg/kg Δ^9-THC” value with mice [4] (at 0.3 mg/kg i.v.) is recorded as 74% (0.3). For the same compound, the “SA: maximum % antagonism of 3 mg/kg Δ^9-THC” value in the assay on mice [4] (at 1 mg/kg i.v.) was 91% (1). Further, the “Max stim of spontaneous locomotor activity, Compound with 3 mg/kg Δ^9-THC” value in the assay on mice [4] (at 30 mg/kg i.v.) was 107% (30). Also, in the assay with mice [5] (Mus musculus, iv, at 3 mg/kg i.v., read-out: Max % inhibit of spontaneous locomotor activity, Compound Alone), the inhibition in vivo at 3 mg/kg was determined as 26%. The change in vivo at 10 mg/kg in the assay on mice [5] (Mus musculus, iv, at 10 mg/kg i.v., read-out: Max stim of spontaneous locomotor activity, Compound Alone) was 2%.
Turning to “N-(N-Piperdyl)-3-(2,4-dichlrophenyl)-4-(4″-pentylphenyl)-5-iodopyrazole-carboxamide [Compound O-1704]”, in the assay on mice [1] (i.v.), the “RT: > dose, 50% activity not achieved at this highest dose tested” value is reported as >30 mg/kg. Moreover, the Ki at CB1 receptor (read-out: Ki) was 2.2 nM. In addition, in the assay on mice [4] (at 0.3 mg/kg i.v.), the “Max % inhibit of spontaneous locomotor activity, Compound with 3 mg/kg Δ^9-THC” value is reported as 85% (0.3). In addition, the “SA: maximum % antagonism of 3 mg/kg Δ^9-THC” value with mice [4] (at 3 mg/kg i.v.) is listed as 65% (3). Besides, the “Max stim of spontaneous locomotor activity, Compound with 3 mg/kg Δ^9-THC” value in the assay with mice [4] (at 10 mg/kg i.v.) is listed as 49% (10). In addition, the “Max stim of spontaneous locomotor activity, Compound Alone” value in the assay with mice [5] (at 1 mg/kg i.v.) is 57% (1). For the same compound, in the assay with mice [5] (at 30 mg/kg i.v.), the “Max % inhibit of spontaneous locomotor activity, Compound Alone” value was 19% (30). For the same compound, in the assay with mice [5] (mice, i.v.), the “SA: > dose, 50% activity not achieved at this highest dose tested” value was >30 mg/kg. The “TF: > dose, 50% activity not achieved at this highest dose tested” value in the assay with mice [6] (i.v.) is >30 mg/kg.
For `CCCCCc1ccc(-c2cc(C(=O)NN3CCCCC3)nn2-c2ccc(Cl)cc2Cl)cc1` [Compound O-1710], the ED50 with mice [1] (setting [7]), in the assay on mice [5] (setting [9]) and in the assay with mice [6] (setting [10]) was > 30 mg/kg each time. For the same compound, the Ki at CB1 receptor (Ki (nM)) stood at 27 ± 0.86 nM. The “CB1 binding affinity, fold decrease by hydrogen substitution at position 4” value at CB1 receptor (compared to the p-pentylphenyl analog with 4-methyl) is recorded as 12 fold. For the same compound, the “% MPE: maximum % antagonism of 3 mg/kg Δ^9-THC” value in the assay with mice [2] (at 10 mg/kg i.v.) is listed as 62% (10). Also, in the assay with mice [3] (at 1 mg/kg i.v.), the “RT: maximum % antagonism of 3 mg/kg Δ^9-THC” value is listed as 51% (1). Further, the “SA: maximum % antagonism of 3 mg/kg Δ^9-THC” value with mice [4] (at 3 mg/kg i.v.) is 50% (3). In the assay on mice [4] (at 10 mg/kg i.v.), the “Max % inhibit of spontaneous locomotor activity, Compound with 3 mg/kg Δ^9-THC” value is 82% (10). In addition, in the assay on mice [4] (setting [8]), the “Max stim of spontaneous locomotor activity, Compound with 3 mg/kg Δ^9-THC (in words)” value is recorded as “None (0.3, 1, 3, & 10)”. Besides, the change in vivo at 1 mg/kg in the assay on mice [5] (Mus musculus, iv, at 1 mg/kg i.v., read-out: Max stim of spontaneous locomotor activity, Compound Alone) was 4%. Besides, in the assay with mice [5] (Mus musculus, iv, at 10 mg/kg i.v., read-out: Max % inhibit of spontaneous locomotor activity, Compound Alone), the inhibition in vivo at 10 mg/kg was found to be 42%.
In the case of `CCCNC(=O)c1nn(-c2ccc(Cl)cc2Cl)c(-c2ccc(Cl)cc2)c1C` [Compound O-1399, N-(n-propyl)-5-(4-chlorophenyl)-1-(2,4-dichlorophenyl)-4-methyl-1H-pyrazole-3-carboxamide], the ED50 in the assay on mice [1] (0.5 h, i.v., 30 min post-injection, 95% confidence limits in parentheses, read-out: RT (rectal temperature) ED50) was 10 µmol/kg; with mice [5] (Mus musculus, iv, mice, i.v., 95% confidence limits in parentheses, * = estimated ED50, dose-effect curve not linear, read-out: SA (suppression of spontaneous activity) ED50), 9 µmol/kg; in the assay with mice [6] (20 min, i.v., 20 min post-injection, 95% confidence limits in parentheses, * = estimated ED50, dose-effect curve not linear, read-out: TF (tail flick, % MPE) ED50) it was 24 µmol/kg. In addition, affinity at CB1 receptor (Ki (nM)) was put at a Ki of 167 ± 32 nM. The “CB1 binding affinity, fold decrease on shortening the n-pentyl amide” value on CB1 receptor (compared to O-1269) is listed as 5 fold. Besides, the inhibition in vivo at 30 mg/kg in the assay with mice [5] (Mus musculus, iv, at 30 mg/kg i.v., read-out: Max % inhibit of spontaneous locomotor activity, Compound Alone) was determined as 100%. For the same compound, in the assay on mice [5] (setting [8]), the “Max stim of spontaneous locomotor activity, Compound Alone (in words)” value is on record as “None (3, 10 & 30)”.
